Results published in patent US20170239212A1, “[…] AND USE THEREOF AS ANTIVIRAL AGENTS” (priority 2014, published 2017).

Legend:
[1] = tested on: human osteosarcoma (HOS) cells; assay: HOS cell viability (CellTiter-Glo, cellular ATP); type: cell-based; parameters: unit not given here; settings: knock down of cellular ATP
Experimental: (§1) Specifically, EC50 and CC50 values were determined in parallel using 10 concentrations of compound from 3 fold serial dilutions starting a 5 uM as the highest concentration. Cells and media were added to compounds with a final concentration of DMSO of 1% and incubated at 37° C., 5% CO2 for 24, 48 and 72 hours. EC50 was measured by induced luciferase activity detected by the use of the Steady-Glo® Luciferase reagent (PROMEGA) with an EnVision (Perkin-Elmer) plate reader. CC50 was determined by the dose dependent knock down of cellular ATP detected by the use of CellTiter-Glo® Luminescent Cell Viability reagent (PROMEGA) with an EnVision (Perkin-Elmer) plate reader.

[2] = tested on: HIV long terminal repeat (LTR) promoter; assay: HOS LTR stimulation assay (luciferase reporter); type: cell-based; settings: HOS cells; for Max signal (% of control): LTR-luciferase signal; for EC50: LTR-luciferase, incubated 24, 48 and 72 hours (time of the listed values not stated), read-out: EC50; for Conc (uM) at Max: concentration at maximal LTR-luciferase signal
Experimental: In the assay, non T cell derived human osteosarcoma (HOS) cells are transfected with a luciferase reporter under control of an HIV long terminal repeat (LTR) promoter. Compounds that stimulate the HIV LTR promoter will produce luciferase in a dose dependent manner.
as §1
The error bars represent the average and the standard error of the mean of at least three independent experiments.

[3] = target: HIV long terminal repeat (LTR) promoter; assay: in vitro; type: cell-based; settings: Jurkat cells; for EC50: LTR-luciferase, incubated 24, 48 and 72 hours (time of the listed values not stated)
Experimental: as §1, with “The compounds were also tested in the T cell derived Jurkat cell line transfected with a luciferase reporter under control of an HIV long terminal repeat (LTR) promoter. Specifically,” for “Specifically,”

Jurkat cell line = assay: in vitro; type: cell-based; settings: Jurkat cells, knock down of cellular ATP
Experimental: as §1, with “The compounds were also tested in the T cell derived Jurkat cell line transfected with a luciferase reporter under control of an HIV long terminal repeat (LTR) promoter. Specifically,” for “Specifically,”

[4] = target: mouse recombinant isozyme PKCα (Mus musculus, UniProt P20444); assay: [3H]PDBu binding assay (polyethylene glycol precipitation); settings: calcium and phosphatidylserine present, 2 nM [3H]PDBu, read-out: Ki (inhibitory dissociation constant, displacement of [3H]PDBu)
Experimental: [^3H]PDBu Binding Assay. The inhibitory dissociation constant (Ki) of each bryologue ligand was determined by the ability of the ligand to displace bound [20-^3H]phorbol 12,13-dibutyrate (PDBu) from mouse recombinant isozyme PKCα in the presence of calcium and phosphatidylserine, using a polyethylene glycol precipitation assay developed in our laboratory as described elsewhere. Briefly, the assay mixture (250 μL) contained 50 mM Tris-HCl (pH 7.4 at room temperature), 100 μg/mL phosphatidylserine, 0.1 mM Ca^2+, 4 mg/mL bovine immunoglobulin G and 0.003% Tx-100, 2 nM [^3H]PDBu and various concentrations of the competing ligand. […] The radioactivity was determined by scintillation counting, using Cytoscint (ICN, Costa Mesa, Calif.). Specific binding was calculated as the difference between total and nonspecific PDBu binding. The Inhibitory dissociation constants (Ki) were calculated using the method previously described by Blumberg and Lewin.
The inhibitory dissociation constant (Ki) of MERLE 28 was determined by the ability of the ligand to displace bound [20-^3H]phorbol 12,13-dibutyrate (PDBu) from mouse recombinant isozyme PKCα in the presence of calcium and phosphatidylserine, using a polyethylene glycol precipitation assay previously described by Blumberg and Lewin. […] The radioactivity was determined by scintillation counting, using Cytoscint (ICN, Costa Mesa, Calif.). […]

in vitro = type: cell-based; settings: human; Jurkat cells, knock down of cellular ATP
Experimental: as §1, with “The compounds were also tested in the T cell derived Jurkat cell line transfected with a luciferase reporter under control of an HIV long terminal repeat (LTR) promoter. Specifically,” for “Specifically,”

| SMILES | CCEC50 [1] | Max signal (% of control) [2] | EC50 [2] [nM] | Conc (uM) at Max [2] [µM] | EC50 [3] [nM] | Selectivity (CC50:EC50) ([3]; ratio of the CC50 to the EC50) | CC50 (Jurkat cell line) [nM] | Ki [4] [nM] | EC50 ([2]; Human immunodeficiency virus 1) [nM] | CC50 (in vitro) [nM] | EC50 ([3]; Human immunodeficiency virus 1) [nM] | selectivity ratio ([3]; human, ratio of the CC50 to the EC50) |
| --- | --- | --- | --- | --- | --- | --- | --- | --- | --- | --- | --- | --- |
| COC(=O)/C=C1/C[C@H]2C[C@]3(O)O[C@H](C[C@@H](O)CC(=O)O[C@@H]([C@@H](C)O)C[C@@H]4C/C(=C\C(=O)OC)[C@H](OC(C)=O)[C@@](O)(O4)C(C)(C)/C=C/[C@@H](C1)O2)C[C@H](OC(C)=O)C3(C)C [Bryostatin 7] | 6.24 | 250 % of control | 6 | 0.07 | 1 | 4.6 | 4.6 | – | – | – | – | – |
| C=C1C[C@H]2C[C@H]3C[C@@H](OC(C)=O)C[C@@H](C[C@@H](O)CC(=O)O[C@@H]([C@@H](C)O)C[C@@H]4C/C(=C\C(=O)OC)[C@H](OC(=O)CCCCCCC)[C@@](O)(O4)C(C)(C)/C=C/[C@@H](C1)O2)O3 [MERLE 27] | – | – | – | – | – | – | – | 3 ± 0.06 | – | – | – | – |
| CC(=O)O[C@@]12C[C@@H](C)[C@@]3(O)[C@@H](C=C(CO)C[C@]4(O)C(=O)C(C)=C[C@@H]34)[C@@H]1C2(C)C [Prostratin] | >50 | 274 % of control | – | 27.78 | – | – | – | – | 1080 | 370 | 130 | 2.8 |
